The values below come from patent US20240368120A1 (Terns Pharmaceuticals, Inc., priority 2023, published 2024).

Each structure is given as a SMILES string.

The target of the assay is T1, human GLP-1R receptor (Homo sapiens, UniProt P43220).
T1 construct: expressed in transfected cells
The assay is described as follows: GLP-1R low expression cell assay (cAMP TR-FRET, CHO-K1_hGLP-1Rlow_clone10 cells). It counts as cell-based. The note with it: for EC50: cAMP TR-FRET, 30 min at 25° C.; for Emax: maximum activation relative to control GLP-1 peptide agonist. The protocol:
Stable cell lines expressing high and low GLP-1R surface expression were generated in CHO-K1 cells transfected (Fugene 6) with a puromycin selectable DNA plasmid encoding human GLP-1R receptor (accession number: NM_002062.5) under control of an EF1A promoter. Transfected cells were seeded into 24-well plates (9,000 cells/well) containing complete medium and incubated in a humidified incubator at 37° C. with 5% carbon dioxide. After overnight incubation, medium was replaced with complete medium supplemented with puromycin (6 μg/mL) and refreshed every 2-3 days to select for stably transfected cells. Individual pools of selected cells were expanded prior to analysis for responsiveness to GLP-1 control peptide using a TR-FRET assay to detect cAMP (LANCE Ultra CAMP Assay, Perkin Elmer). Briefly, cells were collected in Versene solution, plated in 384-well plates (1,000 cells/well) and combined with serially diluted GLP-IR control peptide (10 nL) using an acoustic dispenser (ECHO). Plates were incubated for 30 minutes at 25° C. prior to the addition of EU-CAMP tracer (5 μL) and Ulight-anti-CAMP (5 μL) reagents to each well, followed by 15 minutes incubation at 25° C. TR-FRET signal was detected using an En Vision Multimode Plate Reader (excitation=320 nm; emission=615 and 655 nm). Dose-response curves were used to generate EC50 values as a measure of responsiveness to the GLP-IR control peptide. Selected cell lines were monitored for responsiveness over multiple passages to ensure stability. […] Briefly, GLP-IR expression was analyzed by flow cytometry using a fluorescein-labeled Exendin-4 peptide fluorescent probe (FLEX). Cells were harvested in Versene solution and washed 3-times with PBS+0.5% BSA before incubation with FLEX reagent (10 μM) for 2 hours at room temperature. After incubation, cells were washed 3-times in PBS+0.5% BSA before final resuspension in PBS prior to analysis by flow cytometry to measure FLEX mean fluorescence intensity (MFI) as a measure of GLP-IR expression on the cell surface.
For compound testing in the CHO-K1_hGLP-IRlow_clone10 cell line, cells were seeded in 384-well plates (1,000 cells/well). Test compounds were serially diluted in DMSO (10-point, 3-fold dilution), added to wells using an ECHO dispenser (10 nL/well) and plates were centrifuged for 1 min and agitated for 2 min at room temperature prior to 30-minute incubation at 25° C. After incubation, Eu-CAMP (5 μL) and Ulight-anti-cAMP (5 μL) reagents were added to each well, followed by centrifugation for 1 minute, agitation for 2 minutes at room temperature, and final incubation of the plates at 25° C. for 15 minutes. Plates were read using an EnVision microplate reader (excitation=320 nm; emission=615 and 655 nm). Dose-response curves were generated from duplicate wells based on percent activation calculated relative to a control GLP-1 peptide agonist that was run in parallel. EC50 values were determined by fitting percent activation as a function of compound concentration using the Hill equation (XLfit).
The compounds tested were compound samples prepared according to the General Procedures described in the Examples section.
(Time-resolved FRET reads energy transfer from a long-lived donor to a nearby acceptor.)

T1 sequence (P43220 24-463): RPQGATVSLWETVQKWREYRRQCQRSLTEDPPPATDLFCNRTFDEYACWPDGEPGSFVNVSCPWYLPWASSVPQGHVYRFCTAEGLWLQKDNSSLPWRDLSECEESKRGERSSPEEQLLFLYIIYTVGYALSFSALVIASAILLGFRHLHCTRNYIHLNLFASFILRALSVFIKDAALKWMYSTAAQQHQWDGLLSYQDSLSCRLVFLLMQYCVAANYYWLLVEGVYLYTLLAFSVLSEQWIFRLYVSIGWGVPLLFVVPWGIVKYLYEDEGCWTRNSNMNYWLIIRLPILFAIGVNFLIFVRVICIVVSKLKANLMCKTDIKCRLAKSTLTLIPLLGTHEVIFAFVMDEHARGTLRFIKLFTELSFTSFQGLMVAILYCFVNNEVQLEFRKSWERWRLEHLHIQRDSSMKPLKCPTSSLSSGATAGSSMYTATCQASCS

For the compound `COCCOc1cc(C(=O)O)cc2nc(CN3CCC(c4cccc5c4O[C@@](C)(c4ccc(Cl)cn4)O5)CC3)n(C)c12` [Compound 76, (S)-2-((4-(2-(5-Chloropyridin-2-yl)-2-methylbenzo[d][1,3]dioxol-4-yl)piperidin-1-yl)methyl)-7-(2-methoxyethoxy)-1-methyl-1H-benzo[d]imidazole-5-carboxylic acid], the EC50 (as a rule, the concentration giving half of the maximal effect) was greater than 1000 nM and the Emax (usually the maximal effect, on the per cent scale that the assay sets) lay within 50 to 85%.

The compound `COc1cc(C(=O)O)cc2c1nc(N(C)[C@H]1CC[C@@H](c3cccc4c3O[C@@](C)(c3ccc(Cl)cn3)O4)CC1)n2C[C@@H]1CCO1` [Compound 79, 2-(((1R,4R)-4-((S)-2-(5-chloropyridin-2-yl)-2-methylbenzo[d][1,3]dioxol-4-yl)cyclohexyl)(methyl)amino)-4-methoxy-1-(((S)-oxetan-2-yl)methyl)-1H-benzo[d]imidazole-6-carboxylic acid] came in with an EC50 of 100 to 1000 nM and an Emax greater than 85%.

`N#Cc1ccc(COc2cccc(C3CCN(Cc4nc5c(O)cc(C(=O)O)cc5n4Cc4cncs4)CC3)n2)c(F)c1` [Compound 82, 2-((4-(6-((4-Cyano-2-fluorobenzyl)oxy)pyridin-2-yl)piperidin-1-yl)methyl)-4-hydroxy-1-(thiazol-5-ylmethyl)-1H-benzo[d]imidazole-6-carboxylic acid] registered an EC50 of less than 10 nM and an Emax greater than 85%.

Compound `CC(C)Oc1cc(C(=O)O)cc2c1nc(CN1CCC(c3cccc4c3O[C@@](C)(c3ccc(Cl)cn3)O4)CC1)n2C` [Compound 84, (S)-2-((4-(2-(5-Chloropyridin-2-yl)-2-methylbenzo[d][1,3]dioxol-4-yl)piperidin-1-yl)methyl)-4-isopropoxy-1-methyl-1H-benzo[d]imidazole-6-carboxylic acid] displayed an EC50 of less than 10 nM and a maximum response (Emax) greater than 85%.

Regarding `COc1cc(C(=O)O)cc2c1nc(CN1CCC(c3cccc4c3O[C@@](C)(c3ccc(Cl)cn3)O4)CC1)n2C(C)C` [Compound 86, (S)-2-((4-(2-(5-Chloropyridin-2-yl)-2-methylbenzo[d][1,3]dioxol-4-yl)piperidin-1-yl)methyl)-1-isopropyl-4-methoxy-1H-benzo[d]imidazole-6-carboxylic acid], the EC50 is 100 to 1000 nM and the Emax was greater than 85%.

Turning to `Cn1c(CN2CCC(c3cccc4c3O[C@@](C)(c3ccc(Cl)cn3)O4)CC2)nc2c(C(C)(F)F)cc(C(=O)O)cc21` [Compound 87, (S)-2-((4-(2-(5-Chloropyridin-2-yl)-2-methylbenzo[d][1,3]dioxol-4-yl)piperidin-1-yl)methyl)-4-(1,1-difluoroethyl)-1-methyl-1H-benzo[d]imidazole-6-carboxylic acid], the EC50 lay in the range of 100 to 1000 nM and the Emax is greater than 85%.

Compound `CCn1c(CN2CCC(c3cccc4c3O[C@@](C)(c3ccc(Cl)cn3)O4)CC2)nc2c(OC(C)C)cc(C(=O)O)cc21` [Compound 88, (S)-2-((4-(2-(5-Chloropyridin-2-yl)-2-methylbenzo[d][1,3]dioxol-4-yl)piperidin-1-yl)methyl)-1-ethyl-4-isopropoxy-1H-benzo[d]imidazole-6-carboxylic acid] showed an EC50 of 10 to 100 nM and an Emax greater than 85%.

Consider `COc1cc(C(=O)O)cc2c1nc(CN1CCC(c3cccc4c3O[C@H](c3ccc(C#N)cc3F)CO4)CC1)n2Cc1cncs1` [Compound 91, (R)-2-((4-(3-(4-cyano-2-fluorophenyl)-2,3-dihydrobenzo[b][1,4]dioxin-5-yl)piperidin-1-yl)methyl)-4-methoxy-1-(thiazol-5-ylmethyl)-1H-benzo[d]imidazole-6-carboxylic acid], for which the EC50 fell in the range of 100 to 1000 nM and the Emax was greater than 85%.

In turn, `C[C@]1(c2ccc(Cl)cn2)Oc2cccc(C3CCN(Cc4nc5c(O)cc(C(=O)O)cc5n4C[C@@H]4CCO4)CC3)c2O1` [Compound 92, 2-((4-((S)-2-(5-Chloropyridin-2-yl)-2-methylbenzo[d][1,3]dioxol-4-yl)piperidin-1-yl)methyl)-4-hydroxy-1-(((S)-oxetan-2-yl)methyl)-1H-benzo[d]imidazole-6-carboxylic acid] returned an EC50 of less than 10 nM and an Emax greater than 85%.
